Read-outs that look alike come from different tables or passages of the source.
Legend:
healthy adult subjects = assay: Phase 1 first in human study, safety and tolerability; assay type: in vivo
Protocol: The 2 sentinel subjects (chosen according to a randomization scheme) were dosed on Day 1. After at least 24 hours, the safety profile was acceptable to the Investigator (based on, at minimum, adverse events [AEs], concomitant medications and procedures, and any other important clinical observations), and the remainder of the cohort was dosed according to the randomization schedule.
The same total daily dose was then administered for the remainder of the planned treatment schedule (Days 2 to 14, inclusive).
Results. This study was a Phase 1, three-part study with a double-blind, placebo-controlled, single ascending dose (SAD) phase, a double-blind multiple ascending dose (MAD) phase, and an open-label cross-over food effect phase. The study enrolled a total of 97 healthy adult subjects.

[1] = toxicokinetics, 7-day monkey study; assay type: in vivo; details: cynomolgus monkey, plasma, oral, monkeys, read-out: Mean Day 7 AUC0-last
Protocol: (§1) In cynomolgus monkeys, a 7-day repeat dose toxicity study was conducted with doses up to 250 mg/kg/day. […] To aid in dose selection for a subsequent pivotal study, an additional study was conducted to determine the maximum feasible dose under optimal feeding conditions in cynomolgus monkeys. […] Dosing monkeys in the fasted state prior to dosing yielded more consistently higher exposures. Therefore, a dose of 375 mg/kg in 0.5% methyl cellulose (400 cps) and 0.1% Tween 80 administered to fasted monkeys was selected for the 14-day repeat-dose phase of the study, and was considered the maximum feasible dose.

CAIA in BALB/c mice = assay: collagen antibody-induced arthritis (CAIA) model; assay type: in vivo, mouse
Crl:CD1 (ICR) mice = assay: 28-day repeat-dose oral toxicity study in mice; details: mouse, in vivo
Excerpt: (§2) Additionally, toxicokinetic animals received the vehicle or compound in the same manner and dose levels as the main study groups.

[2] = 28-day repeat-dose oral toxicity study in mice; details: both sexes, Crl:CD1 (ICR), mouse, in vivo; mice, 28 days
Excerpt: as §2

[3] = system: osteoclast differentiation; assay: osteoclast differentiation in vitro; assay type: cell-based
in vivo = details: HLA-B27/Huβ2m transgenic, rat, plasma, po
Excerpt: In each disease model, steady-state pharmacokinetics were characterized.

[4] = 28- and 91-day toxicology studies in cynomolgus monkeys; details: cynomolgus monkey, in vivo, oral
Monkey/Cynomolgus = assay: 7-day repeat dose toxicity study in cynomolgus monkeys; assay type: in vivo; details: monkeys, 25, 75, 250 mg/kg/day
Protocol: as §1

TNF-α secretion by PBMCs = assay: ex vivo studies of PBMCs from healthy volunteers; assay type: cell-based, human; details: at TE of 60%
[5] = system: Mannan PsA in C57B1/6 mice; assay: mannan-induced psoriatic arthritis model; assay type: in vivo, mouse
[6] = physical form (amorphous/crystalline) in dose formulation vehicle; assay type: physicochemical
Excerpt: Additionally, the vehicle used in the pivotal studies was changed from 0.5% methyl cellulose (400 cps) and 0.1% Tween 80 to distilled water.

[7] = system: proinflammatory cytokines (TNF-α) in LPS-stimulated whole blood; assay: Phase 1 study, whole-blood ex vivo assay with LPS stimulation; assay type: cell-based, human
[8] = single oral dose pharmacokinetics in Sprague Dawley rats; assay type: in vivo; details: rat
Protocol: (§3) In vitro and in vivo studies were conducted to characterize the absorption, PK, distribution, and metabolism of Compound 1. […] Additionally, plasma samples from single dose PK studies in mice and monkeys were evaluated for circulating metabolites.

[9] = system: Ankylosing spondylitis in HLA B27 Tg rat; assay: HLA-B27/Huβ2m transgenic rat model of ankylosing spondylitis
Excerpt: Etanercept and tofactinib (Balagué et al. Profiling of dihydroorotate dehydrogenase, p38 and JAK inhibitors in the rat adjuvant-induced arthritis model: a translational study. Br J Pharmacol. 2012 June; 166(4):1320-32) were included in this rat study as comparator molecules.

[10] = single intravenous dose pharmacokinetics in Sprague Dawley rats; assay type: in vivo; details: rat, plasma; for Vd: read-out: Vdss
Protocol: as §3

[11] = exposure in 28- and 91-day monkey toxicology studies
mice = assay: 91-day repeat-dose toxicology study with mice; assay type: in vivo, mouse; details: 750 mg/kg/day
[12] = steady-state plasma exposure in mouse disease models; assay type: in vivo; details: 3 mg/kg
[13] = Sprague Dawley, plasma, female, single oral 30 mg/kg
[14] = Sprague Dawley, plasma, male, single oral 30 mg/kg

SMILES: CCOCc1cnc(Cl)nc1Oc1ccc2c(ccc3sc4c(c32)NC[C@@H](C)NC4=O)n1 [Compound 1]
- most common TEAEs suspected related (skin and subcutaneous tissue disorder) (healthy adult subjects; Part 1, 400-mg dose level, 2 TEAEs in 2 subjects): mild, transient, pruritic, erythematous rash without other organ involvement
- severe TEAEs or serious adverse events (healthy adult subjects; Part 1, single doses 3 mg to 400 mg): no severe TEAEs or serious adverse events (SAEs)
- TEAEs suspected to be related to Compound 1 (healthy adult subjects; Part 1, single doses 3 mg to 400 mg, of the 22 total TEAEs): 5
- ALT elevations, other 2 subjects (healthy adult subjects; Part 2, 120 mg): less than 2 × above the upper limit of normal
- peak ALT elevation (healthy adult subjects; Part 2, 120 mg, one subject, Day 17): 2.3 ×ULN
- TEAEs suspected to be related to Compound 1 (healthy adult subjects; Part 2, 10 to 150 mg daily for 14 days, of the 42 total TEAEs): 9
- subjects with increase in serum transaminase levels (ALT) above ULN (healthy adult subjects; Part 2, 120-mg dose cohort, of 6 subjects on active treatment): 3
- transaminase level changes (healthy adult subjects; Part 2, 150-mg dose cohort, 14-day dosing period): no transaminase level changes were observed in any subject
- tolerability (healthy adult subjects; single dose up to 400 mg, 14 days up to 150 mg): well tolerated
- AUC(0-t) ([1]; 25 mg/kg/day): 1090 ng·h/mL
- AUC(0-t) ([1]; 75 mg/kg/day): 1170 ng·h/mL
- AUC(0-t) ([1]; 250 mg/kg/day): 9440 ng·h/mL
- % Inhibition, paw swelling (CAIA in BALB/c mice; 3 mg/kg, last day of dosing): 89.7% paw
- Minimally Efficacious Dose (CAIA in BALB/c mice; endpoint paw swelling): 3 mg/kg
- compound-related findings (Crl:CD1 (ICR) mice; 15 mg/kg/day): no compound-related findings
- microscopic finding, skeletal muscle (Crl:CD1 (ICR) mice; 100 mg/kg/day): Minimal to mild myofiber degeneration in the skeletal muscle
- adverse effect, heart (Crl:CD1 (ICR) mice; 750 mg/kg/day): Minimal to mild myofiber degeneration in the heart
- change in mean absolute reticulocyte count (Crl:CD1 (ICR) mice; 750 mg/kg/day): −29%
- change in mean platelet count (Crl:CD1 (ICR) mice; 750 mg/kg/day): +96%
- leukocyte counts (non-adverse) (Crl:CD1 (ICR) mice; 750 mg/kg/day): Minimal to mild decreases in lymphocyte counts and inconsistent decreases in most other leukocyte subtypes
- microscopic finding, duodenum (Crl:CD1 (ICR) mice; 750 mg/kg/day): Minimal to mild erosion/ulceration of the proximal duodenum
- microscopic finding, liver (Crl:CD1 (ICR) mice; 750 mg/kg/day): Centrilobular hepatocellular hypertrophy (typically of minimal severity)
- microscopic finding, thymus (Crl:CD1 (ICR) mice; 750 mg/kg/day): Minimal to mild thymic cortical lymphoid depletion
- organ weights (non-adverse) (Crl:CD1 (ICR) mice; 750 mg/kg/day): Increased liver and heart weights
- NOAEL at 28 days [2]: 100 mg/kg/day
- osteoclast differentiation [3]: inhibit osteoclast differentiation in vitro
- AUC (in vivo; 20 mg/kg): 2820 ng·h/mL
- AUC (in vivo; 100 mg/kg): 7190 ng·h/mL
- NOAEL [4]: 375 mg/kg/day
- Findings, 7 days (Monkey/Cynomolgus): no compound-related findings in any endpoints
- inhibition of TNF-α secretion (TNF-α secretion by PBMCs): approximately 70%
- % Inhibition by PsASI ([5]; 3 mg/kg, from PsASI-score time curve): 36% by
- Minimally Efficacious Dose ([5]; endpoint PsASI score (ear thickness, skin flakiness, paw score combined)): 3 mg/kg
- physical form after dose formulation preparation ([6]; Tween 80 present in the vehicle): changed from an amorphous to a crystalline form, beginning within the first hour
- time remaining in the amorphous form ([6]; prepared in distilled water): at least 24 hours
- TNF inhibition in the ex vivo assay ([7]; Part 1, single oral doses 10 mg to 400 mg, by 4 hours, LPS 24 hours): dose dependent increase
- TNF-α in the ex vivo assay ([7]; Part 2, 14 days of dosing, doses greater than 10 mg, maximal inhibition at 150 mg): sustained reductions in TNF-α
- AUC [8, 13]: 5940 ng·h/mL
- AUC(0-inf) [8, 13]: 6610 ng·h/mL
- Cmax [8, 13]: 4960 ng/mL
- Tmax ([8]; Sprague Dawley, plasma, female, single oral 30 mg/kg, median, read-out: tmax): 30 min
- AUC [8, 14]: 1190 ng·h/mL
- AUC(0-inf) [8, 14]: 1290 ng·h/mL
- Cmax [8, 14]: 1180 ng/mL
- Tmax ([8]; Sprague Dawley, plasma, male, single oral 30 mg/kg, median, read-out: tmax): 15 min
- Tmax ([8]; both sexes, Sprague Dawley, plasma, 30 mg/kg, rats, oral dosing, read-out: time to maximum plasma concentration (tmax)): 15 to 60 min
- bioavailability ([8]; both sexes, Sprague Dawley, plasma, po, rats, doses in the range 15 to 375 mg/kg): 8 to 28%
- F ([8]; female, single oral 30 mg/kg): 28%
- F ([8]; male, single oral 30 mg/kg): 11%
- Paw Swelling Inhibition (%) ([9]; 100 mg/kg daily oral gavage): 65%
- dose dependence of inhibition of paw swelling ([9]; 20 and 100 mg/kg): dose-dependent inhibition of paw swelling
- cytokines IL-7, IL-1β; chemokines MCP-1, MIP-1α, KC; GM-CSF ([9]; HLA-B27/Huβ2m rats): A trend towards decreases
- Minimally Efficacious Dose (lowest tested dose determined to be effective) ([9]; endpoint paw score): 20 mg/kg
- half-life ([10]; both sexes, iv, 5 mg/kg, rats, read-out: terminal half-life): ≤ 60 min
- AUC ([10]; female, single IV 5 mg/kg): 3950 ng·h/mL
- AUC(0-inf) ([10]; female, single IV 5 mg/kg): 3960 ng·h/mL
- clearance ([10]; female, single IV 5 mg/kg): 21.5 mL/min/kg
- Vd ([10]; female, single IV 5 mg/kg): 0.561 L/kg
- half-life ([10]; female, single IV 5 mg/kg, read-out: t1/2,z (converted)): 66 min
- AUC ([10]; male, single IV 5 mg/kg): 2020 ng·h/mL
- AUC(0-inf) ([10]; male, single IV 5 mg/kg): 2020 ng·h/mL
- clearance ([10]; male, single IV 5 mg/kg): 42.2 mL/min/kg
- Vd ([10]; male, single IV 5 mg/kg): 0.648 L/kg
- half-life ([10]; male, single IV 5 mg/kg, read-out: t1/2,z (converted)): 13.8 min
- AUC ([11]; cynomolgus monkey, plasma, oral, 375 mg/kg/day): 9120 ng·h/mL
- margin of monkey exposure over human 150-mg dose ([11]; monkey NOAEL AUCLST vs human 150 mg): 6.7 fold
- finding on which the NOAEL was based (mice): microscopic findings in the heart
- AUC ([12]; BALB/c, mouse, CAIA in BALB/c mice): 626 ng·h/mL
- AUC ([12]; BALB/c, mouse, imiquimod ear swelling in BALB/c mice): 917 ng·h/mL
- AUC ([12]; C57B1/6, mouse, mannan PsA in C57B1/6 mice): 467 ng·h/mL

— US20220251105A1, “METHODS OF TREATING A MK2-MEDIATED DISORDER” (Celgene CAR LLC, priority 2019, published 2022)
